88 compounds from the supplement of paper PMC3493320 can be followed below.

SMILES strings stand for the structures.

This assay concerns NCI-H295R. Description: IC50 (antiproliferative, ATP content). To be noted: 48 h. In outline: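 Adrenocortical carcinoma cells in 1536-well plates (1500 per well, serum-free DMEM plus ITS, overnight culture) were exposed for 48 h at 37 °C, 5% CO2 to pin-transferred compounds at 8 final concentrations ranging 0.6 nM to 46 µM. ATP content was then read as CellTiter-Glo luminescence and normalised to vehicle and positive-control wells. The IC50 came from logistic curve fits, and any compound lacking a concentration response was recorded as above the top dose.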
The IC50 is the midpoint of a concentration-inhibition curve. High values mean weaker potency, low ones greater potency. As for `C[C@@H]1CC[C@@]2(OC1)O[C@H]1C[C@H]3[C@@H]4CC[C@H]5C[C@@H](O)CC[C@]5(C)[C@H]4CC(=O)[C@]3(C)[C@H]1[C@@H]2C`, the half-maximal inhibitory concentration (IC50) is over 46 µM.
In turn, `N[C@H](C)[C@@H](O)[C@]1=CC=CC=C1.Cl` registered an IC50 of over 46 µM.
For the compound `NS(=O)(=O)c1cc2c(cc1Cl)NC(CC1CCCC1)NS2(=O)=O` (stereo not drawn), the IC50 was over 46 µM.
Then `CC(CCc1ccccc1)NC(C)C(O)c1ccc(O)cc1` (stereo not drawn), with over 46 µM; and `CC[N+](C)(C)Cc1ccccc1Br.Cc1ccc(S(=O)(=O)[O-])cc1`, with over 46 µM; and `Br.COc1ccc2c(c1)[C@]13CCCC[C@@H]1[C@H](C2)N(C)CC3.O`, with over 46 µM.
`C[C@@H](N)C(=O)O` registered a 50% inhibitory concentration (IC50) of over 46 µM.
For `FC1=CC2=C(O[C@H]([C@@](N)=O)C[C@@]([C@@]3=O)2NC(N3)=O)C=C1` the value was over 46 µM; for `O=C(O)CCNC(=O)c1ccccc1`, over 46 µM.
For `Cc1ccccc1OCC(O)CO` (stereo not drawn) the value was over 46 µM; for `O=C1Nc2ccc(Cl)cc2C(c2ccccc2Cl)=NC1O` (stereo not drawn), over 46 µM.
For `N\1(C(NC(/C(=C/1)C)=O)=O)[C@@H]2O[C@H](CO)[C@H](C2)O` the value was over 46 µM.
`CCCOC(C(=O)OC1CCN(C)CC1)(c1ccccc1)c1ccccc1.Cl` showed an IC50 of over 46 µM.
As for `Nc1ccc(C(=O)O)cc1`, the IC50 is over 46 µM.
The compound `CC[N+](CC)(CCNC(=O)C(=O)NCC[N+](CC)(CC)Cc1ccccc1Cl)Cc1ccccc1Cl.[Cl-].[Cl-]` returned an IC50 of over 46 µM.
Then `N[C@@]([C@H]([C@H]1O)O[C@H]([C@@H]([C@H]1O)O)O)=O`, with over 46 µM.
Then `O=C(O)CCc1nc2ccccc2[nH]1`, with over 46 µM.
The compound `CC1=NN(c2ccccc2)C(=O)C1` returned a 50% inhibitory concentration (IC50) of over 46 µM.
Then `CCOc1ccc(NC(=S)Nc2ccc(OCC)cc2)cc1`, with over 46 µM.
As to `C[N+]1(CCCCC[N+]2(C)CCCC2)CCCC1.O=C([O-])[C@H](O)[C@@H](O)C(=O)O.O=C([O-])[C@H](O)[C@@H](O)C(=O)O`, the IC50 was over 46 µM.
Regarding `O=S(=O)(O)NC1CCCCC1`, the half-inhibitory concentration (IC50) is over 46 µM.
Then `O=[C@@](NC2=O)[C@](N2)3C1=C(OCC3)C=CC(F)=C1`, with over 46 µM; and `CCCCCCNC(=O)n1cc(F)c(=O)[nH]c1=O`, with over 46 µM.
The compound `OCCOCCN1CCN(C2=Nc3ccccc3Sc3ccccc32)CC1` came in with a concentration for half-maximal inhibition (IC50) of over 46 µM.
Turning to `C=CCN1CCCC1CNC(=O)c1cc(S(N)(=O)=O)cc(OC)c1OC` (stereo not drawn), the concentration for half-maximal inhibition (IC50) was over 46 µM.
The compound `CC1CCc2cc(F)cc3c(=O)c(C(=O)O)cn1c23` (stereo not drawn) displayed an IC50 of over 46 µM.
For `CC(C)(O)C(Cl)(Cl)Cl` the value was over 46 µM; for `C=CC(C)(O)CC/C=C(\C)CCC=C(C)C` (stereo not drawn), over 46 µM; for `O=C(O)[C@@H](S)[C@H](S)C(=O)O`, over 46 µM.
Then `CN1CCC[C@@H]1Cc1c[nH]c2ccc(CCS(=O)(=O)c3ccccc3)cc12`, with over 46 µM.
Compound `CN(C)CC/C=C1/c2ccccc2COc2ccc(CC(=O)O)cc21.Cl` registered a 50% inhibitory concentration (IC50) of over 46 µM.
`CN(CCOc1ccc(NS(C)(=O)=O)cc1)CCc1ccc(NS(C)(=O)=O)cc1` showed an IC50 of over 46 µM.
`CN1CCN(c2c(F)cc3c(=O)c(C(=O)O)cn4c3c2SCC4)CC1.Cl` gave an IC50 of over 46 µM.
For `COP(=S)(OC)Oc1ccc(S(=O)(=O)N(C)C)cc1` the value was over 46 µM; for `COC(=O)c1ccccc1O`, over 46 µM; for `CN1CCN(CC(=O)N2c3ccccc3C(=O)Nc3cccnc32)CC1`, over 46 µM.
For `NC(=O)c1cc[n+](CC2=C(C(=O)[O-])N3C(=O)[C@@H](NC(=O)[C@H](c4ccccc4)S(=O)(=O)[O-])[C@@H]3SC2)cc1.[Na+]` the value was over 46 µM.
Then `CCCCCCCCCCCCCCCCO`, with over 46 µM; and `CN1CCN(c2c(F)cc3c(=O)c(C(=O)O)cn(CCF)c3c2F)CC1`, with over 46 µM; and `CC[C@H](C)[C@H](NC(=O)[C@H](Cc1ccccc1)NC(=O)[C@H](C)NC(=O)[C@H](CC(=O)O)NC(=O)[C@H](CCCCN)NC(=O)[C@H](CO)NC(=O)[C@@H]1CCCN1C(=O)[C@@H]1CCC(=O)N1)C(=O)NCC(=O)N[C@@H](CC(C)C)C(=O)N[C@@H](CCSC)C(N)=O`, with over 46 µM.
For `CCOc1ccccc1O[C@H](c1ccccc1)[C@H]1CNCCO1.CS(=O)(=O)O`, the half-maximal inhibitory concentration (IC50) is over 46 µM.
As to `CN1CCN2c3ccccc3Cc3ccccc3C2C1` (stereo not drawn), the half-maximal inhibitory concentration (IC50) is over 46 µM.
For `O=c1[n-]c2[nH]c(=O)[nH]c(=O)c2[nH]1.[Na+]` the value was over 46 µM.
For `CC(C)Oc1ccc2c(=O)c(-c3ccccc3)coc2c1` the value was over 46 µM.
For `CC1(C)S[C@@H]2[C@H](NC(=O)[C@H](NC(=O)N3CCN(S(C)(=O)=O)C3=O)c3ccccc3)C(=O)N2[C@H]1C(=O)O` the value was over 46 µM; for `COP(=O)(OC)OC(c1ccc(Cl)cc1)P(=O)(OC)OC` (stereo not drawn), over 46 µM.
For the compound `CC(C)Cc1ccc(CC(=O)O)cc1`, the IC50 is over 46 µM.
Then `O=C(O)COc1ccc(CCNS(=O)(=O)c2ccccc2)s1`, with over 46 µM; and `COP(=O)(OC)OC=C(Cl)Cl`, with over 46 µM.
`O=C(O)CCC(=O)O`: the half-maximal inhibitory concentration (IC50) is over 46 µM.
Then `COc1cc(S(C)=O)ccc1-c1nc2ncccc2[nH]1` (stereo not drawn), with over 46 µM.
Regarding `NC(=O)C1c2ccccc2CCc2ccccc21`, the IC50 is over 46 µM.
For `CC1(C)Oc2ccc(C#N)cc2[C@@H](N2CCCC2=O)[C@@H]1O` the value was over 46 µM.
For `C[N+]12CCC(CC1)C(OC(=O)C(O)(c1ccccc1)c1ccccc1)C2.[Br-]` (stereo not drawn) the value was over 46 µM; for `CC1=C(CC(=O)O)c2cc(F)ccc2/C1=C\c1ccc(S(C)=O)cc1` (stereo not drawn), over 46 µM; for `c1ccc2ccccc2c1`, over 46 µM.
Take `NS(=O)(=O)c2cc1c(/N=C\NS1(=O)=O)cc2Cl`: the IC50 was over 46 µM.
Consider `CC(C)(Oc1ccc(CCNC(=O)c2ccc(Cl)cc2)cc1)C(=O)O`, for which the IC50 was over 46 µM.
`c1ccc2c(c1)sc1ccccc12` had an IC50 of over 46 µM.
`Cc1ccc(O)c([C@H](CCN(C(C)C)C(C)C)c2ccccc2)c1`: the IC50 was over 46 µM.
Regarding `CCC1OC(=O)C[C@@H](O)[C@H](C)[C@@H](O[C@@H]2O[C@H](C)C[C@H](N(C)C)[C@H]2O)[C@@H](CC=O)C[C@@H](C)C(=O)/C=C/[C@]2(C)OC2C1C` (stereo partly drawn), the IC50 was over 46 µM.
The compound `C[NH+](C)CCC(c1ccccc1)c1cccc[nH+]1.O=C([O-])/C=C\C(=O)[O-]` (stereo not drawn) came in with an IC50 of over 46 µM.
`Cc1cc(CC(=O)O)c(C)n1-c1ccc(Cl)cc1`: the half-inhibitory concentration (IC50) was over 46 µM.
For `NCC1(CC(=O)O)CCCCC1` the value was over 46 µM; for `CS(=O)(=O)OCCCCOS(C)(=O)=O`, over 46 µM; for `CCCCCN(CCCCC)C(=O)C(CCC(=O)[O-])NC(=O)c1ccc(Cl)c(Cl)c1.[Na+]` (stereo not drawn), over 46 µM.
For `CCCCNCC(O)c1ccc(O)cc1` (stereo not drawn) the value was over 46 µM.
For `CC[C@H]1OC(=O)[C@H](C)C(=O)[C@H](C)[C@@H](O[C@@H]2O[C@H](C)C[C@H](N(C)C)[C@H]2O)[C@](C)(OC)C[C@@H](C)C(=O)[C@H](C)[C@H]2N(CCCCn3cnc(-c4cccnc4)c3)C(=O)O[C@]12C` the value was over 46 µM.
As to `Cc1cn[nH]c1`, the concentration for half-maximal inhibition (IC50) was over 46 µM.
For `CN1C(=O)[C@@H](NC(=O)c2cc3ccccc3[nH]2)N=C(c2ccccc2)c2ccccc21` the value was over 46 µM.
In the case of `F[C@]1([C@](C[C@@H]4F)([H])[C@@]3([H])[C@]([C@@]([C@H](C)C3)(O)[C@@](CO)=O)(C)C[C@@H]1O)[C@](C=C2Cl)(C)C4=CC2=O.O`, the IC50 was over 46 µM.
Then `CCCC(=O)OC(C(Cl)(Cl)Cl)P(=O)(OC)OC` (stereo not drawn), with over 46 µM.
Compound `Nc1ncnc2c1ncn2[C@@H]1O[C@H](COP(=O)(O)OP(=O)(O)OP(=O)(O)O)[C@@H](O)[C@H]1O` registered a half-inhibitory concentration (IC50) of over 46 µM.
Then `OS(C1=C(C(C)C)C=C3C([C@@]2(C)CCC[C@]([C@@](O)=O)(C)[C@@]([H])2CC3)=C1)(=O)=O`, with over 46 µM; and `CC(C)C[C@@H](NC(=O)[C@@H](O)[C@H](N)Cc1ccccc1)C(=O)O.Cl`, with over 46 µM; and `CCCCCNC(=N)N/N=C/c1c[nH]c2ccc(OC)cc12`, with over 46 µM.
Regarding `Cc1ccccc1/N=N/c1ccc(/N=N/c2c(O)ccc3ccccc23)c(C)c1`, the concentration for half-maximal inhibition (IC50) is over 46 µM.
Compound `O=P([O-])([O-])OC[C@@]1(O)O[C@H](COP(=O)([O-])O)[C@@H](O)[C@@H]1O.[Na+].[Na+].[Na+]` showed an IC50 of over 46 µM.
For `Cn1c(=O)c2c(ncn2CCOC(=O)C(C)(C)Oc2ccc(Cl)cc2)n(C)c1=O` the value was over 46 µM; for `C[C@]12CC[C@@H]3c4ccc(O)cc4C[C@@H](CCCCCCCCCS(=O)CCCC(F)(F)C(F)(F)F)[C@H]3[C@@H]1CC[C@@H]2O` (stereo partly drawn), over 46 µM; for `NC(=O)N1c2ccccc2CC(=O)c2ccccc21`, over 46 µM.
Take `O=C1C=C3[C@]([C@@]2(F)[C@@H](O)C[C@@]4(C)[C@](C[C@@]5([H])OC(C)(C)O[C@@]45[C@@](CO)=O)([H])[C@@]([H])2C[C@@H]3F)(C)C=C1`: the IC50 was over 46 µM.
Take `CC(=O)[O][Al]([OH])[O]C(C)=O`: the IC50 was over 46 µM.
Regarding `NNc1nnc(NN)c2ccccc12`, the 50% inhibitory concentration (IC50) is over 46 µM.
`N[C@@H](CSSC[C@H](N)C(=O)O)C(=O)O` showed a half-inhibitory concentration (IC50) of over 46 µM.
Turning to `CC(=O)Nc1ccc(O)cc1`, the half-maximal inhibitory concentration (IC50) was over 46 µM.
As for `O=c1n(Cl)c(=O)n(Cl)c(=O)n1Cl`, the IC50 was over 46 µM.
Then `Cl.NCCCC(N)(C(=O)O)C(F)F` (stereo not drawn), with over 46 µM.
